These results are taken from US9593149B2, “Amylin and calcitonin receptor agonist” (Novo Nordisk A/S, priority 2014, dated 2017).

The nature of one data set: Assay (X) pK, T½ in rat. The class given is in vivo, Sprague Dawley rats. The note with it: male, Sprague Dawley, plasma, sc, 20 nmol/kg. The procedure:
Assay (X)—pK—Determination of T½ in Rat
Pharmacokinetic (PK) studies rats were conducted in order to determine the T½ of mimylin peptide after i.v. and s.c. administration.
T½ values of the mimylin derivates of the invention is determined by pharmacokinetic studies in Sprague Dawley male rats, from Taconic Europe and the principles of laboratory animal care are followed.
An acclimatisation period of approximately 7 days was allowed before the animals entered the study. At start of the acclimatisation period the rats were in the weight range of 250-400 g.
The studies were conducted in an animal room which was illuminated to give a cycle of approximately 12 hours light and 12 hours darkness. The animals were group housed and had food and water ad lib. The animals were weighed on the days of dosing.
In the present studies the test substances were administered subcutaneously or intravenously in approximately 20 nmol/kg dose. The animals received a single subcutaneous injection to the neck for subtaneous administration or directly into the tail vein for intravenous administration. Each test substance was given to typically three but in some cases two or four animals.
A full plasma concentration-time profile, employing 8-10 sampling points, was obtained from each animal. In example blood samples were collected according to the following schedule: After subcutaneous or intravenous administration:
At each sampling time, 0.08 to 0.10 ml of blood was drawn from each animal. The blood samples were taken in the sublingual vein via venous puncture and the use of a capillary tube.
The blood samples were stabilised with EDTA. Blood samples were kept on ice for max 20 min. before centrifugation. Plasma was separated using centrifugation (i.e. at 4° C., 10 min., 1500G) and was immediately transferred to Micronic tubes or PCR plates. Approximately 40 μl plasma was transferred and was stored at −20° C. until assayed. The plasma samples were assayed for the content of mimylin compound by LCMS
The plasma concentration-time profiles were analysed by a non-compartmental pharmacokinetic analysis (NCA) using Phoenix WinNonlin 6.3 (Pharsight Inc., Mountain View, Calif., USA). NCA was performed using the individual plasma concentration-time profiles from each animal. T½ is the terminal half-life=In2/λz and was determined from λz, the first order rate constant associated with the terminal (log-linear) portion of the curve, estimated by linear regression of time vs. log concentration.

In data set [1] the target is T1, human amylin receptor (human calcitonin receptor + human RAMP3), BHK tk'ts 13 cells (Homo sapiens, UniProt O60896+P30988).
T1 construct: expressed in transfected cells; host or cells: BHK tk'ts 13
T1 sequence (O60896 24-148, one chain of several): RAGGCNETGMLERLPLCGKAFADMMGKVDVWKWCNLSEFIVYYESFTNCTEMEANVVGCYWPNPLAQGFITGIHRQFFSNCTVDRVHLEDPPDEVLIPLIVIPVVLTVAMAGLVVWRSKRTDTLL
In words: Assay (Va) binding to the human amylin receptor (whole cell). As to conditions: read-out: hAmylin-R binding IC50. As for the experimental part:
The day before the assay the cells were Seeded into Poly-D-Lysin coated 384W Opaque White, BD BioCoat plates (10000 cells/well) and Incubated overnight at 37° C., 5% CO2, 95% humidity.

Data set [2] in a line: Assay (IV) determination of solubility. Format: physicochemical. As for the experimental part:
Assay (IV)—Determination of Solubility
The mimylin peptide was dissolved in water at ˜500 nmol/ml and mixed 1:1 with a series of buffers (100 mM glycylglycine pH 3.0, 100 mM glycylglycine pH 4.0, 100 mM glycylglycine pH 5.0, 100 mM bistrispropane pH 6.0, 100 mM bistrispropane pH 6.5, 100 mM bistrispropane pH 7.0, 100 mM bistrispropane pH 7.5, 100 mM bistrispropane pH 8.0).

For data set [3], the target named is T2, human calcitonin (a) receptor, BHK570 cells (Homo sapiens, UniProt P30988).
T2 construct: host or cells: BHK570
T2 sequence (P30988 25-474): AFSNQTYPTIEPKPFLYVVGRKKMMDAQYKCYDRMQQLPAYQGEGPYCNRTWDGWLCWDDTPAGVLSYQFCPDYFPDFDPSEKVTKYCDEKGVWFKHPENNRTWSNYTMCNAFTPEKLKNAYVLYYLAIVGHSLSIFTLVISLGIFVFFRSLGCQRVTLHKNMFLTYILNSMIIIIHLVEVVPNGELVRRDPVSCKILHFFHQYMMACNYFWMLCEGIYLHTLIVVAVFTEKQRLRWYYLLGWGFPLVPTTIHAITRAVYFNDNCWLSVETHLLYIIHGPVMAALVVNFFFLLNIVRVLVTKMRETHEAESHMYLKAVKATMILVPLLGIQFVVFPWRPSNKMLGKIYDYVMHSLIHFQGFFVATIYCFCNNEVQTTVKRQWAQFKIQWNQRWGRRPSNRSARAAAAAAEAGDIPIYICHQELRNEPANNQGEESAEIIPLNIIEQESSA
In words: Assay (II)b functional CRE-luciferase assay without albumin, human calcitonin receptor. Format: cell-based. The note with it: Tested without HSA; read-out: hCTR funct. EC50. The text has this:
(§1) Assay(II)b—Human Calcitonin and Amylin Receptor Assay without Albumin
(§2) 1. Luciferase Assay Outline
(§3) Activation of calcitonin and amylin (co-expression of calcitonin receptor and receptor activity modifying proteins (RAMP)) receptors lead to increased intracellular concentrations of cAMP. Consequently, transcription is activated by promoters containing multiple copies of the cAMP response element (CRE). It is thus possible to measure amylin activity by the use of a CRE luciferase reporter gene introduced into BHK cells also expressing calcitonin or amylin receptors.
(§4) 2. Construction of Calcitonin (a)—and Amylin 3(a)—Receptor/CRE-Luc Cell Line.
(§5) A BHK570 cell line was stably transfected with the human calcitonin receptor and a CRE-responsive luciferase reporter gene (Hollex-1 cell line, obtained from ZymoGenetics described in U.S. Pat. No. 5,622,839). The cell line was further transfected with RAMP-3, using standard methods. This turns the calcitonin receptor into an amylin 3(a) receptor. Methotrexate, Neomycin, and Hygromycin are selection markers for luciferase, the calcitonin receptor, and RAMP-3, respectively. To prepare the batches of frozen cells used in the luciferase assay described in the section below, the cells were cultured in growth medium (DMEM with 10% FBS, 1% Pen/Strep and 1 mM Napyruvate). […] Cells at approximately 80-90% confluence were washed with PBS and loosened from the plates with Versene. After centrifugation (2 min, 1300 rpm, in a Centrion Scientific centriuge C2 series with a BRK 5510 rotor head), the cell pellet was dissolved in 10% DMSO, 30% FBS and 60% growth medium and frozen (−80° C.) until utilization.
(§6) The day before the experiment, BHK calcitonin (a) receptor- or amylin 3(a)-receptor/CRE-luc cells were thawed, washed twice, and seeded in 40 μl growth medium on white 384 well culture plates (4.000 cells/well). On the assay day, the cells were washed 3 times in assay media (Dulbecco media W/o phenol red, 500 ml (Gibco, 11880-028); 0.1% ovalbumin; 10 mM Hepes pH 7.4; 1× Glutamin; 1% Pen/Strep). Then, 30 μl/well of sample diluted in assay buffer was added. After 3 hours of incubation at 37° C. and 5% CO2, the reaction was terminated by adding 30 μl/well SteadyLite Plus™. The plates were shaken at 300 rpm for 5 min at RT. Then, the plates were sealed and incubated at room temperature for 30 minutes. Finally, luminescence was tested on a TopCounter (Packard) in SPC (single photon counting) mode.
(§7) Additional Comment Regarding Use of Data Retrieved Via this Method
(§8) For the same reasons, measurements made in Assay IIa should not be compared in Assay IIb.

Data set [4] has as its target T2, human calcitonin (a) receptor, BHK570 cells. Put plainly: Assay (II)a functional CRE-luciferase assay with albumin, human calcitonin receptor. The class given is cell-based. As to conditions: Tested with HSA; read-out: hCTR funct. EC50.
Source text: Assay(II)a—Human Calcitonin and Amylin Receptor Assay
as §2, §3, §4
A BHK570 cell line was stably transfected with the human calcitonin receptor and a CRE-responsive luciferase reporter gene. The cell line was further transfected with RAMP-3, using standard methods. This turns the calcitonin receptor into an amylin 3(a) receptor. Methotrexate, Neomycin, and Hygromycin are selection markers for luciferase, the calcitonin receptor, and RAMP-3, respectively.
To perform activity assays, BHK calcitonin (a) receptor- or amylin 3(a)-receptor/CRE-luc cells were seeded in white 96 well culture plates at a density of about 20.000 cells/well. […] After incubation overnight at 37° C. and 5% CO2, the growth medium was replaced by 50 μl/well assay medium (DMEM (without phenol red), Glutamax™, 10% FBS, and 10 mM Hepes, pH 7.4). Further, 50 μl/well of standard or sample in assay buffer were added.
After 3 hours incubation at 37° C. and 5% CO2, the assay medium with standard or sample were removed and replaced by 100 μl/well PBS. Further, 100 μl/well LucLite™ was added. The plates were sealed and incubated at room temperature for 30 minutes. Finally, luminescence was tested on a TopCounter (Packard) in SPC (single photon counting) mode.

In data set [5] the target is T3, human amylin 3(a) receptor (human calcitonin receptor + RAMP-3), BHK570 cells (Homo sapiens, UniProt O60896+P30988).
T3 construct: host or cells: BHK570
T3 sequence (O60896 24-148, one chain of several): as the sequence (O60896 24-148, one chain of several) above
In words: Assay (II)b functional CRE-luciferase assay without albumin, human amylin receptor. The class given is cell-based. The note with it: Tested without HSA; read-out: hAmylin-R funct. EC50.
Source text: as §1, §2, §3, §4, §5, §6, §7, §8

Each structure is given as a SMILES string. ≈ marks a conversion by molar mass, not a printed value. Numbered stars: 1 amine (or outer) side, 2 acyl side, 3 side chain; on linkers, the order of the positions; unused ones are H or OH. Peptide text beside a SMILES is read from it. * marks the point of attachment. C18 diacid = O=C(O)CCCCCCCCCCCCCCCCC(=O)*; γGlu = O=C(O)[C@H](CCC(=O)[*:2])N[*:1] A value given as a limit tells only on which side of the number the result lay.

A word on the half-life: it is how long it takes for the measured level to halve. Low readings indicate rapid decline, high ones slow decline. In turn, `CC(C)C[C@H](NC(=O)[C@H](CCCCN)NC(=O)CNC(=O)[C@H](CC(C)C)NC(=O)[C@@H](NC(=O)[C@@H]1CSSC[C@H](N)C(=O)N[C@@H](CO)C(=O)N[C@@H](CC(N)=O)C(=O)N[C@@H](CC(C)C)C(=O)N[C@@H](CO)C(=O)N[C@@H]([C@@H](C)O)C(=O)N1)C(C)C)C(=O)N[C@@H](CO)C(=O)N[C@@H](CCC(N)=O)C(=O)N[C@@H](CCC(=O)O)C(=O)N[C@@H](CC(C)C)C(=O)N[C@@H](Cc1c[nH]cn1)C(=O)N[C@@H](CCCCN)C(=O)N[C@@H](CC(C)C)C(=O)N[C@@H](CCC(N)=O)C(=O)N[C@H](C(=O)N[C@@H](Cc1ccc(O)cc1)C(=O)N1CCC[C@H]1C(=O)N[C@@H](CCCNC(=N)N)C(=O)N[C@H](C(=O)N[C@@H](CC(N)=O)C(=O)N[C@H](C(=O)NCC(=O)N[C@@H](CO)C(=O)NCC(=O)N[C@H](C(=O)N1CCC[C@H]1C(N)=O)[C@@H](C)O)[C@@H](C)O)[C@@H](C)O)[C@@H](C)O` [Salmon calcitonin, reference compound] had a half-life in the data set “Assay (X) pK, T½ in rat” of 1 h.
What is called IC50 is the concentration that gives 50% inhibition. In general, solubility refers to the dissolved amount per volume that the medium holds. A higher solubility goes with a readily soluble substance. What is called EC50 is the midpoint of the concentration-response curve. For the molecule `CC(C)C[C@H](NC(=O)[C@H](CCCNC(=N)N)NC(=O)CNC(=O)[C@@H](NC(=O)[C@@H](NC(=O)[C@H](C)NC(=O)[C@@H](NC(=O)[C@H](CO)NC(=O)[C@@H](NC(=O)[C@H](CCC(=O)O)NC(=O)[C@H](CO)NC(=O)[C@H](C)NC(=O)CC[C@H](NC(=O)CCCCCCCCCCCCCCCCC(=O)O)C(=O)O)C(C)C)[C@@H](C)O)C(C)C)C(C)C)C(=O)N[C@@H](CO)C(=O)N[C@@H](C)C(=O)N[C@@H](CCC(=O)O)C(=O)N[C@@H](CC(C)C)C(=O)N[C@@H](Cc1c[nH]cn1)C(=O)N[C@@H](CCC(=O)O)C(=O)N[C@H](C(=O)N[C@@H](C)C(=O)N[C@H](C(=O)N[C@@H](CC(C)C)C(=O)N1CCC[C@H]1C(=O)N[C@@H](CCCNC(=N)N)C(=O)N[C@H](C(=O)N[C@@H](CCC(=O)O)C(=O)N[C@H](C(=O)NCC(=O)N[C@@H](CO)C(=O)NCC(=O)N[C@@H](CO)C(=O)N1CCC[C@H]1C(N)=O)[C@@H](C)O)[C@@H](C)O)[C@@H](C)O)C(C)C` [compound 102, [N-terminal(C18 diacid-gGlu), des1, 5V, 9V, 10V, 20V, 30S, 31G]mimylin] ({C18 diacid-γGlu}-ASEVSTAVVGRLSAELHEVATLPRTETGSGSP-NH2), the half-inhibitory concentration (IC50) in data set [1] was determined as 1.65 nM. Further, the solubility at 18 h in data set [2] (bistrispropane buffer, pH 6.5) is not below 200 µM; in data set [2] (bistrispropane buffer, pH 7.5) it was not below 200 µM; in data set [2] (bistrispropane buffer, pH 6.0), not below 200 µM; in data set [2] (bistrispropane buffer, pH 7.0), not below 200 µM; in data set [2] (bistrispropane buffer, pH 8.0), not below 200 µM; in data set [2] (glycylglycine buffer, pH 3.0) it was 6 µM (≈ 21.8 µg/mL). This molecule had a solubility at 18 h in data set [2] (glycylglycine buffer, pH 5.0) not below 200 µM. Also, the EC50 in data set [3] stood at 0.006 nM; in data set [4], 0.028 nM; in data set [5] it was 0.012 nM.
